One molecule from patent US7919493B2, “Anititumoral ecteinascidin derivatives” (Pharma Mar, S.A., priority 2001, dated 2011) can be followed below.

As a reminder, the GI50 is the concentration giving 50% growth inhibition. Read a low GI50 as more potent growth inhibition.

What all share (type): cell-based
Test [1] has as its system A549. In words: Cytotoxic assay, sulforhodamine B (SRB), A549. Conditions: Homo sapiens; A549 cells, 48 hours exposure, SRB method. From the text:
(§1) A colorimetric type of assay, using sulforhodamine B (SRB) reaction has been adapted for a quantitative measurement of cell growth and viability (following the technique described by Skehan P et al. J. Natl. Cancer Inst. 1990, 82, 1107-1112).
(§2) This form of assay employs 96-well cell culture microplates of 9 mm diameter (Faircloth et al. Methods in cell science, 1988, 11(4), 201-205; Mosmann et al, Journal of. Immunological. Methods, 1983, 65(1-2), 55-63). Most of the cell lines are obtained from American Type Culture Collection (ATCC) derived from different human cancer types. Cells are maintained in RPMI 1640 10% FBS, supplemented with 0.1 g/L penicillin and 0.1 g/l streptomycin sulfate and then incubated at 37° C., 5% CO2 and 98% humidity. For the experiments, cells were harvested from subconfluent cultures using trypsin and resuspended in fresh medium before counting and plating.
(§3) Cells were seeded in 96 well microtiter plates at 5×10^3 cells per well in aliquots of 195 μL medium, and allowed to attach to the plate surface for 18 hours in drug free medium. Afterwards, samples are in aliquots of 5 μL in a ranging from 10 to 10-8 μg/mL dissolved in DMSO/ETOH (0.2% in PS buffer). After 48 hours exposure, the antitumor effect are measured by the SRB method: cells are fixed by adding 50 μL of cold 50% (w/v) trichloroacetic acid and incubating for 60 minutes at 4° C. Plates are washed with deionised water and dried. 100 μL of SRB solution (0.4% w/v in 1% acetic acid) is added to each microtiter well and incubated for 10 minutes at room temperature. Unbound SRB is removed by washing with 1% acetic acid. Plates are air-dried and bound stain is solubilized with Tris Buffer. Optical densities are read on an automated spectrophotometric plate reader at a single wavelength of 490 nm.
(§4) The values for mean ±SD of data from triplicate wells are calculated. GI50 (concentration that produces 50% growth inhibition) parameter was calculated (NCI algorithm) by automatic interpolation.
(In general: In SRB staining, fixed cells bind dye roughly in proportion to their protein.)

Test [2] has as its system DU-14S. In words: Cytotoxic assay, sulforhodamine B (SRB), DU-14S. As to conditions: Homo sapiens; DU-14S cells, 48 hours exposure, SRB method.
Source text: as §1, §2, §3, §4

Test [3] relates to HT29. Kind of test: Cytotoxic assay, sulforhodamine B (SRB), HT29. Conditions: Homo sapiens, HT-29; HT29 cells, 48 hours exposure, SRB method.
Source text: as §1, §2, §3, §4

The test system of test [4] is MEL-28. Kind of test: Cytotoxic assay, sulforhodamine B (SRB), MEL-28. As to conditions: Homo sapiens, SK-MEL-28; MEL-28 cells, 48 hours exposure, SRB method.
Source text: as §1, §2, §3, §4

The structures appear in SMILES notation.

Regarding `COc1c(C)cc2c(c1O)[C@@H]1[C@@H]3[C@@H]4SC[C@H](NC(=O)c5cc(C)on5)C(=O)OC[C@@H](c5c6c(c(C)c(OC(C)=O)c54)OCO6)N3[C@@H](O)[C@H](C2)N1C` [Compound 16f], the concentration for 50% growth inhibition (GI50) was 3.47 nM in test [1], 3.4 nM in test [2], 4.3 nM in test [3] and 5.13 nM in test [4].
